Measurements as given in paper PMC10776578, “Epstein-Barr virus-driven B cell lymphoma mediated by a direct LMP1-TRAF6 complex” (Nature Communications, 2024).
Read-outs that look alike come from different tables or passages of the source.

B3: His-TRAF6_(310-522) (domain or fragment)
chain: DHQIRELTAKMETQSMYVSELKRTIRTLEDKVAEIEAQQCNGIYIWKIGNFGMHLKCQEEEKPVVIHSPGFYTGKPGYKLCMRLHLQLPTAQRCANYISLFVHTMQGEYDSHLPWPFQGTIRLTILDQSEAPVRQNHEEIMDAKPELLAFQRPTIPRNPKGFGYVTFMHLEALRQRTFIKDDTLLVRCEVSTRFDMGSLRREGFQPRSTDAGV
notes: also called His-T6; recombinant TRAF6 wild-type; source: E. coli BL21 Codon Plus RIPL, purified (Ni-NTA)
B6: GST-LMP1_(181-386) (domain or fragment)
chain: LIWMYYHGQRHSDEHHHDDSLPHPQQATDDSGHESDSNSNEGRHHLLVSGAGDGPPLCSQNLGAPGGGPDNGPQDPDNTDDNGPQDPDNTDDNGPHDPLPQDPDNTDDNGPQDPDNTDDNGPHDPLPHSPSDSAGNDGGPPQLTEEVENKGGDQGPPLMTDGGGGHSHDSGHGGGDPHLPTLLLGSSGSGGDDDDPHGPVQLSYYD
notes: also called LMP1 wild-type; LMP1 signalling domain; source: E. coli DH5α or BL21 Codon Plus RIPL, purified (glutathione Sepharose 4B)

Columns and labels:
[1] = test system: LMP1-CL 37 B cell lymphoma; test: CRISPR/Cas9 knockout, cell survival (selection score) of lymphoma LMP1-CL 37; assay type: cell-based, mouse; set-up: key: Venus-neg d7 / mCherry+ d2, normalized to nontargeting gRNA (=1); details: for cell survival (selection score), Figure 6 b: CRISPR guides
From the text: (§1) The mouse LMP1 B cell tumors LMP1-CL 37 and 40 were derived from two B cell tumors arising in Rag2^KO;cγ^KO mice inoculated with primary tumor cells from Rag2^KO;cγ^KO mice reconstituted with fetal liver hematopoietic stem cells and progenitor cells from CD19-cre;R26-LMP1^STOPfl;CD3ε^KO animals as described. In these cells, a Venus expression cassette was targeted into the Rosa26 locus by CRISPR/CAS9 as described. Venus-LMP1 B cells were electroporated (Nucleofector, Lonza, human B cell program) with 1 µg of each of two pX330-mcherry-CAS9 vectors[83] encoding varying guide RNAs. In each approach, the first guide RNA (gRNA) targeted Venus while the second gRNA targeted either a nontargeting control sequence not present in the genome, or the gene of interest (GOI). The following gRNA sequences were used: nontargeting (NT) […], ICAM1 […], LMP1 #1 […], LMP1 #2 CCAAAACAGTAGCGCCAAG, LMP1 #3 AATCATCGGTAGCTTGTTG, TRAF6 #1 […], TRAF6 #2 […], TRAF6 #3 […]. The electroporation efficiency, measured as the frequency of mCherry-positive cells on day two after electroporation, was determined by flow cytometry with a Becton Dickinson LSRFortessa flow cytometer. On day seven, the loss of Venus was measured by flow cytometry as a surrogate marker for the number of surviving targeted cells. In the case of a lethal coexpressed GOI gRNA, Venus-negative cells will not survive, and their relative numbers are reduced. The given selection score is defined as the frequency of Venus-negative cells on day seven over the frequency of mCherry-positive cells on day two, normalized to the ratio observed with the nontargeting control gRNA. FACS data were analyzed by FlowJo software. The gating strategy is exemplified in Supplementary Fig. 5b. Animal housing and experiments to generate LMP1 lymphomas were approved by the Landesamt für Gesundheit und Soziales Berlin (G0049/15, G0374/13, and G0135/11). Mice were kept in groups in individually ventilated cages with a 12 h dark-light cycle at 22 ± 2 °C and 55 ± 5% relative humidity. They had access to food and water ad libitum, as well as to nest building material and shelter.

[2] = test system: LMP1-CL 40 B cell lymphoma; test: CRISPR/Cas9 knockout, cell survival (selection score) of lymphoma LMP1-CL 40; assay type: cell-based, mouse; set-up: key: Venus-neg d7 / mCherry+ d2, normalized to nontargeting gRNA (=1); details: for cell survival (selection score), Figure 6 b: CRISPR guides
From the text: as §1

[3] = biological target: B6; test: pull-down; details: both partners purified
[4] = biological target: GST-CD40_(216-277) E235Q (human, UniProt P25942 216-277, E235Q)
[5] = biological target: T1, GST-RANK_(314-355) E346Q (human, UniProt Q9Y6Q6 314-355, E346Q); test: AlphaScreen or HTRF; AlphaScreen PPI assay: His-TRAF and GST-LMP1, GST-CD40 or GST-RANK in PBS with 0.5% BSA and 0.1% Tween-20, 1 h at RT; standard 300 nM His-TRAF and 100 nM GST protein if not indicated otherwise; for KD His-TRAF6 at different concentrations, fit one site-specific binding with hill slope; details: both partners purified
T1 construct: also called RANK E346Q; E to Q mutation at P0 of RANK; source: E. coli DH5α or BL21 Codon Plus RIPL, purified (glutathione Sepharose 4B)
T1 chain: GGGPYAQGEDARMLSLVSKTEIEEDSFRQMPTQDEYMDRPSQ

[6] = biological target: T2, GST-CD40_(216-277) E235Q (human, UniProt P25942 216-277, E235Q); test: as above; details: both partners purified
T2 construct: also called CD40 E235Q; E to Q mutation at P0 of CD40; source: E. coli DH5α or BL21 Codon Plus RIPL, purified (glutathione Sepharose 4B)
T2 sequence: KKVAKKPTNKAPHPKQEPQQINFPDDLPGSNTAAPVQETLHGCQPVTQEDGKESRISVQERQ

[7] = biological target: T3, GST-LMP1_(181-386) Y384D (Epstein-Barr virus, UniProt P03230 181-386, Y384D); test: as above; details: both partners purified
T3 construct: also called LMP1 Y384D; source: E. coli DH5α or BL21 Codon Plus RIPL, purified (glutathione Sepharose 4B)
T3 sequence: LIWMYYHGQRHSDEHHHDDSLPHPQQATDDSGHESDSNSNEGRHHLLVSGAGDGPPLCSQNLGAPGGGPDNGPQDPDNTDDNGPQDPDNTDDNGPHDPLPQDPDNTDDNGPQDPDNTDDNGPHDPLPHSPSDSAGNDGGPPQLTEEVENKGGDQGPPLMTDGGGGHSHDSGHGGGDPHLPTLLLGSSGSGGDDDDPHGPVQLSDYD

[8] = biological target: B3; test: peptide or protein array; peptides spot-synthesised on cellulose membranes in duplicate, incubated with 10 µg per mL purified His-TRAF6 or His-TRAF2 in PBST with 5% milk powder for 4 h at RT; detection by TRAF-specific antibodies; details: both partners purified
[9] = biological target: T4, His-TRAF6_(310-522) K469A (human, UniProt Q9Y4K3 310-522, K469A); test: AlphaScreen or HTRF; AlphaScreen PPI assay: His-TRAF and GST-LMP1, GST-CD40 or GST-RANK in PBS with 0.5% BSA and 0.1% Tween-20, 1 h at RT; standard 300 nM His-TRAF and 100 nM GST protein if not indicated otherwise; for KD His-TRAF6 at different concentrations, fit one site-specific binding with hill slope; details: both partners purified
T4 construct: also called TRAF6 K469A; source: E. coli BL21 Codon Plus RIPL, purified (Ni-NTA)
T4 sequence: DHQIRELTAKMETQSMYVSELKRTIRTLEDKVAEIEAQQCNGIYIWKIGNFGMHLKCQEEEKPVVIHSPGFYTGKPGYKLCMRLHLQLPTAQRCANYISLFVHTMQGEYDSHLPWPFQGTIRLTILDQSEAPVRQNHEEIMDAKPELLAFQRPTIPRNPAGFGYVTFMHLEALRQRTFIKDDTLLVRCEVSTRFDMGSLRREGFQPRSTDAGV

[10] = biological target: B3; test: as above; details: both partners purified
[11] = biological target: T5, His-TRAF6_(310-522) (human, UniProt Q9Y4K3 310-522)
T5 chain: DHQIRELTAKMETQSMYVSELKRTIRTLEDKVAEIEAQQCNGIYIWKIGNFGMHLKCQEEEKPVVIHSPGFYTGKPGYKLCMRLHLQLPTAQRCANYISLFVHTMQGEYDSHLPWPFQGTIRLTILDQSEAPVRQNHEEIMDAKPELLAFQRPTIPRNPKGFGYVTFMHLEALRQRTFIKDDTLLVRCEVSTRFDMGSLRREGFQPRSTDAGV

In the case of “GTTTGAGCTGAGCGAGATCG (expressed or natural sequence) [ICAM1 gRNA]”, the “cell survival (selection score), Figure 6 b” value ([1]; replicate 1) is reported as 1.189, the “cell survival (selection score), Figure 6 b” value ([1]; replicate 2) is reported as 1.169 and the “cell survival (selection score), Figure 6 b” value ([1]; replicate 3) is reported as 1.095. The “cell survival (selection score), Figure 6 b” value ([1]; replicate 4) was 0.9472, the “cell survival (selection score), Figure 6 b” value ([1]; replicate 5) was 1.162 and the “cell survival (selection score), Figure 6 b” value ([1]; replicate 6) was 1.151. For the same molecule, the “cell survival (selection score), mean” value ([1]; mean (NT mean = 1), n = 9 LMP1, 10 TRAF6, 6 ICAM1) was 1.119, the “cell survival (selection score), Figure 6 b” value ([2]; replicate 1) was 1.006 and the “cell survival (selection score), Figure 6 b” value ([2]; replicate 2) was 1.221. For the same molecule, the “cell survival (selection score), Figure 6 b” value ([2]; replicate 3) was 0.6632, the “cell survival (selection score), Figure 6 b” value ([2]; replicate 4) was 1.293 and the “cell survival (selection score), Figure 6 b” value ([2]; replicate 5) was 1.126. For the same molecule, the “cell survival (selection score), mean” value ([2]; mean (NT mean = 1), n = 9 LMP1, 10 TRAF6, 5 ICAM1) was 1.062.

B1: His-TRAF1_(226-416) (domain or fragment)
chain: RERILSLEQRVVELQQTLAQKDQALGKLEQSLRLMEEASFDGTFLWKITNVTRRCHESACGRTVSLFSPAFYTAKYGYKLCLRLYLNGDGTGKRTHLSLFIVIMRGEYDALLPWPFRNKVTFMLLDQNNREHAIDAFRPDLSSASFQRPQSETNVASGCPLFFPLSKLQSPKHAYVKDDTMFLKCIVETST
notes: source: E. coli BL21 Codon Plus RIPL, purified (Ni-NTA)
B1: binds [3].

B2: His-TRAF5_(363-557) (domain or fragment)
chain: DQRLAVLEEETNKHDTHINIHKAQLSKNEERFKLLEGTCYNGKLIWKVTDYKMKKREAVDGHTVSIFSQSFYTSRCGYRLCARAYLNGDGSGRGSHLSLYFVVMRGEFDSLLQWPFRQRVTLMLLDQSGKKNIMETFKPDPNSSSFKRPDGEMNIASGCPRFVAHSVLENAKNAYIKDDTLFLKVAVDLTDLEDL
notes: as for B1
B2: binds [3].

B3 was tested, and the Kd [4] was 73.9 nM, the “factor of reduction of affinity against wild-type RANK” value [5] was 2 fold and the “factor of reduction of affinity against wild-type CD40” value [6] was 4.3 fold. For the same molecule, the “fold reduction of affinity against wild-type LMP1” value [7] was 1.8 fold.

B4: LMP1-derived CTAR2 peptide 11 (amino acids 357-386, 30mer) (peptide)
peptide: PHLPTLLLGSSGSGGDDDDPHGPVQLSYYD
notes: source: synthetic peptide, spot-synthesised on cellulose membrane
B4: binds [8].

B5: LMP1-derived CTAR2 peptide 8 (amino acids 371-386, 16mer) (peptide)
peptide: GDDDDPHGPVQLSYYD
notes: as for B4
B5: binds [8].

For B6, the binding result [9] was “binds” and the Kd [10] was 73.2 nM.

Work on GGGPYAQGEDARMLSLVSKTEIEEDSFRQMPTQDEYMDRPSQ (domain or fragment) [GST-RANK_(314-355) E346Q] yielded a Kd [11] of 15.6 nM.
